Measurements from ChEMBL document CHEMBL1909294, “Translating clinical findings into knowledge in drug safety evaluation--drug induced liver injury prediction system (DILIps)” (PLoS Comput Biol, 2011).

Legend:
Hepatotoxicity [1] = test system: Hepatotoxicity;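 for HepSE Combined Scores: combined hepatic side effect score as listed in the training data of the Drug Induced Liver Injury Prediction System (DILIps)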;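 for HepSE bilirubinemia: bilirubinemia hepatic side effect score drawn from the DILIps training data, a prediction system for drug-induced liver injury; call rule not given here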;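 for HepSE cholecystitis: Cholecystitis-related hepatic side effect score drawn from the DILIps (drug-induced liver injury prediction) training data set; call rule not given here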; for HepSE hepatic failure: call rule not given here;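 for HepSE jaundice: Jaundice-related hepatic side-effect score drawn from the training data of the DILIps (drug-induced liver injury prediction system); call rule not given here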;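 for HepSE liver fatty: hepatic side effect score for fatty liver, taken from the DILIps training set for predicting drug-induced liver injury; call rule not given here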;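 for HepSE liver function tests abnormal: hepatic side effect score taken from the DILIps (drug-induced liver injury prediction system) training data, here covering abnormal liver function test findings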
Hepatotoxicity [2] = test system: Hepatotoxicity; remark: listed apart in the source;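 for HepSE Combined Scores: combined hepatic side effect score as listed in the training data of the Drug Induced Liver Injury Prediction System (DILIps)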;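 for HepSE bilirubinemia: bilirubinemia hepatic side effect score drawn from the DILIps training data, a prediction system for drug-induced liver injury; call rule not given here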;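 for HepSE cholecystitis: Cholecystitis-related hepatic side effect score drawn from the DILIps (drug-induced liver injury prediction) training data set; call rule not given here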; for HepSE hepatic failure: call rule not given here;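 for HepSE jaundice: Jaundice-related hepatic side-effect score drawn from the training data of the DILIps (drug-induced liver injury prediction system); call rule not given here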;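 for HepSE liver fatty: hepatic side effect score for fatty liver, taken from the DILIps training set for predicting drug-induced liver injury; call rule not given here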;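 for HepSE liver function tests abnormal: hepatic side effect score taken from the DILIps (drug-induced liver injury prediction system) training data, here covering abnormal liver function test findings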
Hepatotoxicity [3] = test system: Hepatotoxicity; remark: listed apart in the source;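 for HepSE Combined Scores: combined hepatic side effect score as listed in the training data of the Drug Induced Liver Injury Prediction System (DILIps)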;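 for HepSE bilirubinemia: bilirubinemia hepatic side effect score drawn from the DILIps training data, a prediction system for drug-induced liver injury; call rule not given here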;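 for HepSE cholecystitis: Cholecystitis-related hepatic side effect score drawn from the DILIps (drug-induced liver injury prediction) training data set; call rule not given here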; for HepSE hepatic failure: call rule not given here;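 for HepSE jaundice: Jaundice-related hepatic side-effect score drawn from the training data of the DILIps (drug-induced liver injury prediction system); call rule not given here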;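 for HepSE liver fatty: hepatic side effect score for fatty liver, taken from the DILIps training set for predicting drug-induced liver injury; call rule not given here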
Hepatotoxicity [4] = test system: Hepatotoxicity; remark: listed apart in the source;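 for HepSE Combined Scores: combined hepatic side effect score as listed in the training data of the Drug Induced Liver Injury Prediction System (DILIps)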;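 for HepSE bilirubinemia: bilirubinemia hepatic side effect score drawn from the DILIps training data, a prediction system for drug-induced liver injury; call rule not given here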;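 for HepSE cholecystitis: Cholecystitis-related hepatic side effect score drawn from the DILIps (drug-induced liver injury prediction) training data set; call rule not given here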; for HepSE hepatic failure: call rule not given here;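 for HepSE jaundice: Jaundice-related hepatic side-effect score drawn from the training data of the DILIps (drug-induced liver injury prediction system); call rule not given here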;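 for HepSE liver fatty: hepatic side effect score for fatty liver, taken from the DILIps training set for predicting drug-induced liver injury; call rule not given here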
Hepatotoxicity [5] = test system: Hepatotoxicity; remark: listed apart in the source; for HepSE hepatic failure: call rule not given here
Hepatotoxicity [6] = test system: Hepatotoxicity; remark: listed apart in the source; for HepSE hepatic failure: call rule not given here
Hepatotoxicity [7] = test system: Hepatotoxicity; remark: listed apart in the source
Hepatotoxicity [8] = test system: Hepatotoxicity; remark: listed apart in the source
Hepatotoxicity [9] = test system: Hepatotoxicity; remark: listed apart in the source
Hepatotoxicity [10] = test system: Hepatotoxicity; remark: listed apart in the source
Hepatotoxicity [11] = test system: Hepatotoxicity; remark: listed apart in the source
Hepatotoxicity [12] = test system: Hepatotoxicity; remark: listed apart in the source
Hepatotoxicity [13] = test system: Hepatotoxicity; remark: listed apart in the source
Hepatotoxicity [14] = test system: Hepatotoxicity; remark: listed apart in the source

SMILES	HepSE_liver fatty (Hepatotoxicity [1])	HepSE_bilirubinemia (Hepatotoxicity [2])	HepSE_cholecystitis (Hepatotoxicity [3])	HepSE_Combined Scores (Hepatotoxicity [4])	HepSE_hepatic failure (Hepatotoxicity [5])	HepSE_hepatic necrosis (Hepatotoxicity [6])	HepSE_jaundice (Hepatotoxicity [7])	HepSE_liver function tests abnormal (Hepatotoxicity [8])	HepSE_cirrhosis (Hepatotoxicity [9])	HepSE_hepatitis (Hepatotoxicity [10])	HepSE_liver disease (Hepatotoxicity [11])	HepSE_cholelithiasis (Hepatotoxicity [12])	HepSE_elevated liver function tests (Hepatotoxicity [13])	HepSE_hepatomegaly (Hepatotoxicity [14])
CC(=O)[C@]1(O)Cc2c(O)c3c(c(O)c2[C@@H](O[C@H]2C[C@H](N)[C@H](O)[C@H](C)O2)C1)C(=O)c1ccccc1C3=O [IDARUBICIN]	0	0	0	0	0	0	0	0	0	0	0	0	0	0
O=c1[nH]c(=O)n([C@H]2C[C@H](O)[C@@H](CO)O2)cc1I [IDOXURIDINE]	0	0	0	0	0	0	0	0	0	0	0	0	0	0
O=P1(NCCCl)OCCCN1CCCl (stereo not drawn) [IFOSFAMIDE]	0	0	0	0	0	0	0	0	0	0	0	0	0	0
CC#CCC(C)[C@H](O)/C=C/[C@@H]1[C@H]2C/C(=C/CCCC(=O)O)C[C@H]2C[C@H]1O (stereo partly drawn) [ILOPROST]	0	0	0	0	0	0	0	0	0	0	0	0	0	0
CN(C)CCCN1c2ccccc2CCc2ccccc21 [IMIPRAMINE]	0	0	0	1	0	0	1	0	0	0	0	0	0	0
CC(C)Cn1cnc2c(N)nc3ccccc3c21 [IMIQUIMOD]	0	0	0	0	0	0	0	0	0	0	0	0	0	0
C#CC1(O)CCC2C3CCC4=CC(=O)CCC4C3C(=C)CC21CC (stereo not drawn) [IMPLANON]	0	0	0	0	0	0	0	0	0	0	0	0	0	0
Nc1cc(-c2ccncc2)c[nH]c1=O [INAMRINONE]	0	0	0	1	0	0	1	0	0	0	0	0	0	0
CC1Cc2ccccc2N1NC(=O)c1ccc(Cl)c(S(N)(=O)=O)c1 (stereo not drawn) [INDAPAMIDE]	0	0	0	3	0	0	1	1	0	1	0	0	0	0
COc1ccc2c(c1)c(CC(=O)O)c(C)n2C(=O)c1ccc(Cl)cc1 [INDOMETHACIN]	0	0	0	1	0	0	1	0	0	0	0	0	0	0
II [IODINE]	0	0	0	1	0	0	0	0	0	1	0	0	0	0
O=C(CCCCC(=O)Nc1c(I)cc(I)c(C(=O)O)c1I)Nc1c(I)cc(I)c(C(=O)O)c1I [IODIPAMIDE]	0	0	0	0	0	0	0	0	0	0	0	0	0	0
CC(=O)N(CC(O)CN(C(C)=O)c1c(I)c(C(=O)NCC(O)CO)c(I)c(C(=O)NCC(O)CO)c1I)c1c(I)c(C(=O)NCC(O)CO)c(I)c(C(=O)NCC(O)CO)c1I (stereo not drawn) [IODIXANOL]	0	0	0	0	0	0	0	0	0	0	0	0	0	0
CC(=O)N(CC(O)CO)c1c(I)c(C(=O)NCC(O)CO)c(I)c(C(=O)NCC(O)CO)c1I (stereo not drawn) [IOHEXOL]	0	0	0	0	0	0	0	0	0	0	0	0	0	0
C[C@H](O)C(=O)Nc1c(I)c(C(=O)NC(CO)CO)c(I)c(C(=O)NC(CO)CO)c1I [IOPAMIDOL]	0	0	0	0	0	0	0	0	0	0	0	0	0	0
COCC(=O)Nc1c(I)c(C(=O)NCC(O)CO)c(I)c(C(=O)N(C)CC(O)CO)c1I (stereo not drawn) [IOPROMIDE]	0	0	0	0	0	0	0	0	0	0	0	0	0	0
CNC(=O)c1c(I)c(NC(C)=O)c(I)c(C(=O)[O-])c1I.[Na+] [IOTHALAMATE SODIUM]	0	0	0	0	0	0	0	0	0	0	0	0	0	0
